Values of other authors as cited in patent US20130121963A1, “N-PHENYL-2-PYRIMIDINEAMINE DERIVATIVES” (Concert Pharmaceuticals Inc., priority 2008, published 2013).

half-life (from the FDA label for imatinib): 40 h | plasma AUC of the metabolite relative to that of the parent (percent of the parent (imatinib) plasma AUC, from the FDA label): approximately 15%
SMILES: Cc1ccc(NC(=O)c2ccc(CN3CCNCC3)cc2)cc1Nc1nccc(-c2cccnc2)n1 [N-demethylated piperazine derivative]
